# Reference: patent US10137070B2 (Industry-Academic Cooperation Foundation, Yonsei University, priority 2016, dated 2018)
# How the values were obtained:
# human skin fibroblasts = assay: Procollagen type I C-peptide (PIP) secretion of UVB-irradiated human skin fibroblasts (EIA kit); type: cell-based; settings: 100 μM each; UVB 20 mJ/cm^2; 24 hours culture; mean of three wells
# Experimental: Primary dermal fibroblasts (normal, human, neonatal, ATCC No. PCS-201-010) were purchased from ATCC (Manassas, Va., USA). The purchased cells were incubated in a 5% CO2 incubator at 37° C. by using a fibroblast growth medium (Promo Cell, Heidelberg) and used in experiments.
# To examine collagen biosynthesis ability, human fibroblasts were distributed into a 12 well-plate at a concentration of 1.0×10^6 cells/well, α-ionone and vitamin C were added thereto at a concentration of 100 μM each, and the resulting human fibroblasts were incubated in a CO2 incubator for 24 hours. After removing the medium from each well, the plate was washed once with PBS, and 1 ml of PBS was added thereto, followed by irradiation with ultraviolet B (UVB) at a dose of 20 mJ/cm^2. The PBS of each well was replaced by a medium and the human fibroblasts were cultured for 24 hours, and then the amount of procollagen secreted into the medium was measured using a procollagen type C-peptide EIA kit (Takara Bio, Japan). A standard solution included in the collagen measurement kit was diluted according to concentration, absorbance was measured at 450 nm to create a standard concentration curve, and the amount of collagen produced was calculated. […]
# [1] = Body weights and food intakes of hairless mice fed experimental diets; type: in vivo, albino hairless mice (Skh-1); settings: 0.2% in AIN-93 diet for 10 weeks; UVB-irradiated hairless mice
# Description: (§1) 5-week-old female albino hairless mice (Skh-1) used in the present example were purchased from ORIENTBIO (Gyeonggi-do, Korea) and subjected to an adaptation period of 1 week with solid feed. The experimental animal was divided into 4 groups and 5 mice were assigned to each group. All the experimental groups were divided into a normal control not irradiated with ultraviolet rays (−UVB), a group irradiated with ultraviolet rays (+UVB), and a group irradiated with ultraviolet rays and treated with α-ionone (αIO) or vitamin C (VitC). During a rearing period, the experimental groups were freely fed feed and water, temperature and humidity were maintained at 22±1° C. and 60±5%, a light period and a dark period were adjusted every day to 12 hours.
# (§2) The −UVB and +UVB groups were fed a purified diet formulated based on the AIN-93 rodent diet composition (Ree yes, P G et al., J Nutr, 123:1939-1951, 1993) for 10 weeks, the αIO group were fed an AIN-93 purified diet with 0.2% of α-ionone (Sigma-Aldrich) for 10 weeks, and the VitC group was fed a diet, prepared by adding 0.2% of vitamin C (Sigma-Aldrich) to the AIN-93 purified diet, for 10 weeks. The diets were supplied daily with water between 10 am and 11 am, and food intakes were measured daily.
# (§3) During the experimental rearing period, dorsal parts of the hairless mice were irradiated with UVB three times a week, and the amount of ultraviolet radiation was 73 mJ/cm^2 for the first one week, 146 mJ/cm^2 for the second week, and 219 mJ/cm^2 for the third week to the tenth week. During rearing, body weights and skin thicknesses of the experimental groups were measured weekly, and images of dorsal skin parts thereof were taken. The skin thicknesses of buttocks of the hairless mice were measured using a digital micro caliper (Marathon Watch Company Ltd, Ontario, Canada).
# [2] = tested on: Collagen type I alpha2 (Col1α2); assay: RT-PCR gene expression in dorsal skin tissue: Col1α2; type: in vivo, albino hairless mice (Skh-1); settings: 0.2% in diet for 10 weeks
# Description: as §1
# (§4) The −UVB and +UVB groups were fed a purified diet formulated based on the AIN-93 rodent diet composition (Ree yes, P G et al., J Nutr, 123:1939-1951, 1993) for 10 weeks, the αIO group were fed an AIN-93 purified diet with 0.2% of α-ionone (Sigma-Aldrich) for 10 weeks, and the VitC group was fed a diet, prepared by adding 0.2% of vitamin C (Sigma-Aldrich) to the AIN-93 purified diet, for 10 weeks. The diets were supplied daily with water between 10 am and 11 am, and food intakes were measured daily. […]
# [3] = tested on: skin of UV-irradiated hairless mice; assay: Skin thickness of UV-irradiated hairless mice (digital micro caliper); type: in vivo, albino hairless mice (Skh-1); settings: last day, 0.2% in diet for 10 weeks
# Description: as §1, §4
# [4] = tested on: Matrix metallopeptidase 1a (MMP-1a); assay: RT-PCR gene expression in dorsal skin tissue: MMP-1a; type: in vivo, albino hairless mice (Skh-1); settings: 0.2% in diet for 10 weeks
# Description: as §1, §4
# [5] = tested on: dorsal skin of ultraviolet rays-irradiated hairless mice; assay: Wrinkle formation on dorsal skin of UVB-irradiated hairless mice (images, silicone replica, image analyzer); type: in vivo, albino hairless mice (Skh-1); settings: 0.2% in diet for 10 weeks
# Description: as §1, §2, §3
# The skin of each hairless mouse irradiated with ultraviolet rays for 10 weeks was replicated using silicone rubber and a degree of the formation of wrinkles was measured. A disk with a circular hole having a diameter of 1 cm was attached to a dorsal part of the hairless mouse, reagents for preparing a replica were mixed, the mixed resultant was thinly spread on the dorsal art of the hairless mouse and completely dried, and then the disk was carefully detached therefrom, thereby completing the preparation of the replica. The replica was prepared at a temperature of about 20° C. to about 23° C. and a humidity of about 45% to about 50% under constant temperature and constant humidity conditions, a silicon rubber impression material (Epigem, Seoul, Korea) for preparing a replica was used. To analyze the prepared replica, four wrinkle indexes, such as a total wrinkle area, a maximum wrinkle depth, a mean depth, and a mean length were analyzed using a computer image analyzer (Visioline VL650, Courage+Khazaka electronic GmbH, Germany).
# [6] = tested on: Matrix metallopeptidase 1b (MMP-1b); assay: RT-PCR gene expression in dorsal skin tissue: MMP-1b; type: in vivo, albino hairless mice (Skh-1); settings: 0.2% in diet for 10 weeks
# Description: as §1, §4
# [7] = tested on: Matrix metallopeptidase 9 (MMP-9); assay: RT-PCR gene expression in dorsal skin tissue: MMP-9; type: in vivo, albino hairless mice (Skh-1); settings: 0.2% in diet for 10 weeks
# Description: as §1, §4
# [8] = tested on: Matrix metallopeptidase 3 (MMP-3); assay: RT-PCR gene expression in dorsal skin tissue: MMP-3; type: in vivo, albino hairless mice (Skh-1); settings: 0.2% in diet for 10 weeks
# Description: as §1, §4
# [9] = tested on: skin tissues of ultraviolet rays-irradiated hairless mice; assay: Skin moisture content, moisture evaporation, elasticity and erythema index of UVB-irradiated hairless mice (Corneometer, Tewameter, Cutometer, Mexameter); type: in vivo, albino hairless mice (Skh-1); settings: 0.2% in diet for 10 weeks; UVB three times a week; last day
# Description: as §1, §2, §3
# Skin moisture content, moisture evaporation, elasticity, and the erythema index of each of the experimental animal groups were measured once on the last day of the experiment using Corneometer®, Tewameter®, Cutometer®, and Mexameter® (Courage+Khazaka electronic GmbH), respectively. During the measurement, the value obtained by lightly pressing a certain portion of the experimental animal or the like was recorded.
# [10] = tested on: skin epidermis layer of UV-irradiated hairless mice; assay: Skin epidermis layer thickness by H&E staining; type: in vivo, albino hairless mice (Skh-1); settings: 0.2% in diet for 10 weeks; UVB for 10 weeks
# Description: as §1, §4
# [11] = tested on: Collagen type III alpha1 (Col3α1); assay: RT-PCR gene expression in dorsal skin tissue: Col3α1; type: in vivo, albino hairless mice (Skh-1); settings: 0.2% in diet for 10 weeks
# Description: as §1, §4
# [12] = tested on: Collagen type I alpha1 (Col1α1); assay: RT-PCR gene expression in dorsal skin tissue: Col1α1; type: in vivo, albino hairless mice (Skh-1); settings: 0.2% in diet for 10 weeks
# Description: as §1, §4
# [13] = tested on: collagen fibers in dermis layers of UV-irradiated hairless mice; assay: Collagen fibers in dermis layer by Masson's trichrome staining; type: in vivo, albino hairless mice (Skh-1); settings: 0.2% in diet for 10 weeks; UVB for 10 weeks
# Description: as §1, §4
# [14] = tested on: microorganisms harmful to the human body; settings: Findic et al 2009; cited from earlier work
# [15] = in vivo; cited from earlier work
# rats = settings: 32 rats, orally 10 mg/day for 8 weeks; cited from earlier work
# [16] = replica, computer image analyzer
molecule,measurement,setting,value
"O=C1O[C@H]([C@@H](O)CO)C(O)=C1O [vitamin C, reference compound]",increase in the amount of collagen (procollagen type I C-peptide secreted) compared to control cells irradiated with ultraviolet rays alone (+UVB),human skin fibroblasts,37%
same,effect on body weights,[1],no significant effect
same,effect on food intakes,[1],no significant effect
"CC(=O)/C=C/C1C(C)=CCCC1(C)C (stereo not drawn) [α-ionone, (3E)-4-(2,6,6-trimethylcyclohex-2-en-1-yl)but-3-en-2-one]",increase in the amount of collagen (procollagen type I C-peptide secreted) compared to control cells irradiated with ultraviolet rays alone (+UVB),human skin fibroblasts,37%
same,expression of collagen type 1α2 compared to the +UVB control,[2],significant increase
same,decrease in skin thickness compared to the +UVB control,[3],19%
same,expression of MMP-1a gene compared to the +UVB control,[4],significant decrease
same,degree of formation of wrinkles in silicone rubber replica compared to the +UVB control,[5]; UVB for 10 weeks,significant improvement on the thickness and depth of wrinkles
same,skin wrinkles in images of dorsal skin (naked eye) compared to the +UVB control,[5]; UVB for 10 weeks,significant decrease in the thickness and depth of wrinkles
same,decrease in maximum wrinkle depth compared to the +UVB control,[5]; [16],49%
same,decrease in mean depth of wrinkles compared to the +UVB control,[5]; [16],39%
same,decrease in mean length of wrinkles compared to the +UVB control,[5]; [16],68%
same,decrease in total wrinkle area compared to the +UVB control,[5]; [16],60%
same,expression of MMP-1b gene compared to the +UVB control,[6],significant decrease
same,expression of MMP-9 gene compared to the +UVB control,[7],significant decrease
same,effect on body weights,[1],no significant effect
same,effect on food intakes,[1],no significant effect
same,expression of MMP-3 gene compared to the +UVB control,[8],significant decrease
same,decrease in erythema index compared to the +UVB control,[9],26%
same,decrease in moisture evaporation compared to the +UVB control,[9],46%
same,increase in elasticity of skin tissue compared to the +UVB control,[9],77%
same,increase in moisture content of skin tissue compared to the +UVB control,[9],78%
same,thickness of the thickened epidermis layer due to UV irradiation (H&E staining),[10],significant decrease
same,expression of collagen type 3α1 compared to the +UVB control,[11],significant increase
same,expression of collagen type 1α1 compared to the +UVB control,[12],significant increase
same,"collagen fibers of the dermis layer (Masson's trichrome, aniline blue) compared to the control irradiated alone",[13],relatively more compact and regularly arranged
ionone,antimicrobial activity,[14],strong antimicrobial activity
same,LD50,[15],2 g/kg body weight
same,toxicity after oral administration,rats,no toxicity was shown
